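Assay format: 96-well plates, 48-hour exposure. GI50 is the concentration that inhibits growth by half. TGI: concentration producing complete growth inhibition.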 *1 amine or outer side, *2 acyl side, *3 side chain or, on linkers, in order; H or OH if unused. Where a SMILES comes first, the peptide text is derived from it. [ ]: non-standard residue; d: D form. ξ: configuration not given here. X21 = CC[C@@H](C)C(N[*:1])C(=O)[*:2]; ξR = N=C(N)NCCCC(N)C(=O)O; ξI = CCC(C)C(N)C(=O)O; ξL = CC(C)CC(N)C(=O)O; ξK = NCCCCC(N)C(=O)O; ξV = CC(C)C(N)C(=O)O; ξA = CC(N)C(=O)O
Columns and labels:
Test in all cases: NCI anticancer screen, dose series, 48 h
[1] = system: NCI-H460 lung
[2] = system: SR leukemia
[3] = system: OVCAR-5 ovarian
[4] = system: SK-MEL-5 melanoma
[5] = system: KM12 colon
[6] = system: COLO 205 colon
[7] = system: HCT-15 colon
[8] = system: SNB-75 CNS

Row | Compound | GI50 [1] [µM] | TGI [1] [µM] | GI50 [2] [µM] | TGI [2] [µM] | GI50 [3] [µM] | TGI [3] [µM] | GI50 [4] [µM] | TGI [4] [µM] | GI50 [5] [µM] | TGI [5] [µM] | GI50 [6] [µM] | TGI [6] [µM] | GI50 [7] [µM] | TGI [7] [µM] | GI50 [8] [µM] | TGI [8] [µM]
1 | COc1ccc(-c2csc(NC(=O)c3cc(O)c(O)c(O)c3)n2)cc1 | 7.5 | > 33.3 | 1.89 | > 33.3 | > 33.3 | > 33.3 | 6.04 | > 33.3 | 13.2 | > 33.3 | 10.8 | > 33.3 | 6.63 | > 33.3 | 6.32 | > 33.3
2 | CCOC(=O)Nc1nc2c(C)cccc2s1 | 70.8 | > 100 | 73.3 | > 100 | 66.8 | > 100 | 28 | 91.5 | 56.8 | > 100 | > 100 | > 100 | 44.3 | > 100 | 30.9 | > 100
3 | CCC(C)C1NC(=O)C(CC(C)C)NC(=O)C(C)NC(=O)C(C(C)C)NC(=O)C(CCCCN)NC(=O)C(CC(C)C)NC(=O)C(C(C)C)NC(=O)[C@H](C)NC(=O)C(C(C)CC)NC(=O)C(CCCN=C(N)N)NC(=O)C(CCCCN)NC(=O)C(CCCN=C(N)N)NC(=O)C(CCCCN)NC(=O)C([C@H](C)CC)NC(=O)C(CCCCN)NC1=O (stereo partly specified) (cyclo(A[ξV][ξL][ξK][ξV][ξA][ξL][ξI][ξK][X21][ξK][ξR][ξK][ξR][ξI])) | 1.57 | 3.49 | 1.48 | 4.1 | 1.94 | 7.16 | 0.6 | 1.87 | 1.73 | 3.9 | 1.49 | 3.85 | 1.48 | 3.58 | 1.34 | 3.24
4 | COc1ccc(/C=C/NC=O)cc1 | – | > 100 | – | > 100 | – | > 100 | – | > 100 | – | > 100 | – | > 100 | – | > 100 | – | > 100
5 | NC(CC1=CCC=CC1)C(=O)O (stereo unspecified) | – | > 100 | – | – | – | > 100 | – | > 100 | – | > 100 | – | > 100 | – | > 100 | – | > 100
6 | O=C(Nc1ccccc1)Nc1cccc(Oc2nnc(Cl)c3ccccc23)c1 | 2.67 | 8.65 | 1.93 | 8.26 | 5.61 | 15.3 | 4.56 | 18.6 | 5.51 | > 25 | 5.24 | > 25 | 3.54 | 12.9 | 1.08 | 5.9
7 | OCc1ccc(N(CCN2CCCC2)Cc2ccc(F)cc2)cc1Cl | 3.47 | 13.9 | 16.1 | 44.8 | 16 | 40.5 | 15 | 28.4 | 17.4 | 34.9 | 8.66 | 21.5 | 18.6 | 50.1 | 12.5 | 35.3
8 | Fc1ccc2[nH]cc(SSc3c[nH]c4ccc(F)cc34)c2c1 | 4.44 | 19.9 | 2.29 | 11.3 | 12.7 | 39.9 | 5.13 | 18.3 | 3.76 | 16.1 | 3.83 | 17.4 | 2.1 | 22 | 3.12 | 15.9
9 | COc1cc(/C=C2\C(=O)Nc3cccc(Cl)c32)cc(OC)c1OC | > 100 | > 100 | 1.55 | 25.1 | 46.4 | > 100 | > 100 | > 100 | > 100 | > 100 | > 100 | > 100 | > 100 | > 100 | 21.9 | 84
10 | Cc1cc(N(CCCl)CCCl)ccc1/C=N/NC(=O)Cc1cc(=O)oc2cc(O)ccc12 | – | 30.5 | – | > 100 | – | 93.7 | – | 21.1 | – | 36.6 | – | 36.7 | – | > 100 | – | > 100
11 | CC(C)Nc1ncc2cc(Oc3ccc(F)cc3F)c(=O)n(C)c2n1 | > 25 | > 25 | > 25 | > 25 | > 25 | > 25 | > 25 | > 25 | > 25 | > 25 | > 25 | > 25 | > 25 | > 25 | > 25 | > 25
12 | O=[N+]([O-])c1ccc2nc3ccccc3cc2c1 | – | > 100 | – | – | – | 7.06 | – | 14.4 | – | – | – | 14.9 | – | 10 | – | 6.53
13 | NC(=O)c1ccc2nc3c(n2c1)C(=O)C(=O)c1ccccc1-3 | 1.53 | 3.34 | 0.488 | 3.86 | 1.72 | 3.15 | 0.936 | 2.25 | 1.39 | 2.97 | 1.91 | 3.82 | 1.46 | 3.55 | 1.56 | 2.92
14 | C=C1C(=O)O[C@H]2[C@H]1CC/C(Cn1cc(-c3cc(C)c(C)cc3C)nn1)=C\CC[C@@]1(C)O[C@@H]21 | 3.16 | 10.8 | 1.26 | 7.8 | 1.74 | 4.38 | 1.66 | 3.12 | 2.31 | 6.62 | 0.643 | 2.15 | 0.201 | 0.548 | 0.521 | 8.45
15 | CC(C)c1ccc(NC(=S)NC(=O)c2ccccc2)cc1 | – | 40.2 | – | – | – | > 100 | – | 27 | – | 46.5 | – | 33.6 | – | 40.7 | – | –
16 | Nc1nc(-c2cccc([N+](=O)[O-])c2)cc(-c2cc(-c3cccc([N+](=O)[O-])c3)nc(N)n2)n1 | – | > 100 | – | > 100 | – | > 100 | – | > 100 | – | > 100 | – | > 100 | – | > 100 | – | –
17 | CC(=O)OC1Oc2ccccc2-c2oc(=O)c(-c3cc4ccccc4oc3=O)cc21 (stereo unspecified) | 27.8 | 91 | – | – | 35 | > 100 | 24.8 | 57.8 | 41.4 | > 100 | 35.5 | > 100 | 22.3 | > 100 | 17.3 | 34.5

— PubChem BioAssay (NCI)
